Measurements from patent US20050009057A1, “Assay for detecting the presence of processing inhibitory antibodies against the Apical Membrane Antigen-1 of Plasmodium falciparum in biological samples” (priority 2003, published 2005).
Like-named read-outs stand apart in the source and are kept apart here.

Experiments:
P. falciparum schizonts = assay: Giemsa stained thin smears after rupture cycle (schizont maturation, PCM); assay type: cell-based, Plasmodium falciparum; settings: for schizont maturation / development on giemsa stained thin smears / Protease inhibitor Clusters of Merozoites (PCM) on giemsa stained slides: inhibitor concentrations as in FIG. 6A
Procedure: (§1) Protease inhibitors. Protease inhibitors were tested for their effect on AMA-1 processing. All inhibitors were from Sigma Chemicals. PMSF, pepstatin and TPCK were dissolved in 100% ethanol. Antipain, leupeptin, and 1,10-phenanthroline stocks were made in water. EDTA and EGTA stocks were made in PBS (pH adjusted to 7.2), TLCK was prepared in 1 mM HCl, E64 and chymostatin were prepared in DMSO. All stocks were at 100× concentration. 1.5 μl of the protease inhibitor or its respective solvent control was added to 15 μl PBS and then 135 μl of (1×10^7/ml) Percoll purified mid-stage schizonts were added. The processing assay was carried out as described above. Parallel assay with protease inhibitors was carried out in two similarly prepared plates to which RBC were also added to a final 4% hematocrit. Parasites in the first plate were allowed to invade in suspension at 37° C. and thin smears were prepared after the rupture cycle for giemsa staining and examination for the presence of Protease inhibitor Clusters of Merozoites (PCM) (Lyon and Haynes, 1986, J. Immunol. 136, 2245-2251). In the second plate parasites (135 μl of 5×10^6/ml schizonts+RBC at 4% hematocrit) were incubated overnight and ring forms were quantitated by flow cytometry as a measure of parasite invasion (Haynes et al., 2002, supra).

[1] = tested on: PfAMA-1 processing on merozoites; assay: AMA-1 processing assay / processing inhibition assay (PIA), western blot; assay type: cell-based, P. falciparum clone 3D7; settings: for accumulation of PfAMA-1 66: FIG. 6A, 6B; for formation of trapped PfAMA-1 52 and PfAMA-1 48+44: with trapping antibodies (1:2500 anti-AMA-1 sera pool)
Procedure: AMA-1 processing assay, or processing inhibition assay (PIA). P. falciparum clone 3D7 cultures were prepared as described previously (Haynes and Moch, 2002, Methods Mol. Med. 72, 489-497), culture media included 10% heat inactivated normal human serum in bicarbonate-containing RPMI 1640 containing final 0.42 mM Ca^+2 and 0.40 mM Mg^+2. Fifteen microliters of heat inactivated rabbit serum (dialyzed against RPMI 1640 or used directly after heat inactivation) or purified IgG or Fab fragments was mixed with 135 μl of synchronized (Haynes and Moch, 2002, supra), Percoll-alanine purified (Kanaani and Ginsburg, 1989, J. Biol. Chem. 264, 3194-3199), mid-stage (˜8 nuclei), >90% pure schizonts (1×10^7 per ml) in a 48 well culture plate. PBS was used as a diluent if necessary. The plate was placed in a plastic bag, gassed with 5% O2-5% CO2, heatsealed, and incubated at 37° C. for ˜6 h (Haynes et al., 2002, Methods Mol. Med. 72, 535-554). Aliquots from a control culture flask were taken to monitor the percent rupture of schizonts by hemocytometer. After ˜90% schizonts had ruptured, the contents of each well were transferred to a microfuge tube and centrifuged at 10,000× g for 5 min. The supernatant was aspirated and the resulting parasite pellet was washed with 0.5 ml chilled PBS and centrifuged as before. The supernatant was discarded and 150 μl of 1× NuPAGE sample buffer (Invitrogen) was added to the tubes, samples were frozen at −30° C. until analyzed. Soluble forms of AMA-1 were immuno-precipitated from the processing assay culture supernatants or from culture supernatant of routinely maintained parasites using MagnaBind Goat anti-Rabbit IgG coated Magnetic Beads (Pierce). Two types of western blots have been used to detect AMA-1 fragments. First set of westerns in FIGS. 1 to 6 have been developed using biotinylated polyclonal IgG against recombinant AMA-1. A second set of western blots, FIG. 6 onwards, has been developed using two biotinylated primary antibodies, mAb 28G2dc1 (1:1000) and polyclonal anti-AMA-1 IgG (1:1000) used simultaneously in order to immunostain all the AMA-1 specific fragments on the blot.
as §1
PAGE and Western blotting. Samples were briefly sonicated with a microtip sonicator, heated at 80° C. for 2 min, spun down and 16 μl was applied per well to a precast 4-12% gradient polyacrylamide gel (NuPAGE Bis-Tris; Invitrogen). Samples were run under non-reduced conditions unless specified. DTT at 50 mM was added to samples resolved under reduced conditions. Proteins from the gel were electrophoretically transferred to nitrocellulose membrane and blocked with 5% BSA in PBS containing 0.05% Tween-20 overnight at 4° C. […]

[2] = tested on: P. falciparum merozoite invasion of RBC; assay: microbe, parasite or virus in culture; assay type: cell-based, Plasmodium falciparum; settings: for inhibition of RBC invasion: 1 mM
Procedure: as §1

[3] = EDTA, EGTA 1 mM (2-0.25 mM in dose response)

| Compound | schizont maturation / development on giemsa stained thin smears (P. falciparum schizonts) | Protease inhibitor Clusters of Merozoites (PCM) on giemsa stained slides (P. falciparum schizonts) | formation of trapped PfAMA-1 52 and PfAMA-1 48+44 [1] | other results |
| --- | --- | --- | --- | --- |
| c1cnc2c(c1)ccc1cccnc12 [1,10-phenanthroline] | interrupted schizont maturation |  |  |  |
| O=S(=O)(F)Cc1ccccc1 [PMSF] | interrupted schizont maturation |  |  |  |
| CC(C)C[C@H](NC(=O)[C@H]1O[C@@H]1C(=O)O)C(=O)NCCCCN=C(N)N [E64] |  | PCM's were observed |  |  |
| Cc1ccc(S(=O)(=O)N[C@@H](Cc2ccccc2)C(=O)CCl)cc1 [TPCK] | interrupted schizont maturation |  |  |  |
| O=C(O)CN(CCOCCOCCN(CC(=O)O)CC(=O)O)CC(=O)O [EGTA] |  |  | inhibited the formation of only PfAMA-148+44 | schizont rupture (P. falciparum schizonts; 1 mM): did not affect schizont rupture; accumulation of PfAMA-1 66 [1, 3]: caused accumulation of PfAMA-166; inhibition of RBC invasion [2]: ~20% |
| O=C(O)CN(CCN(CC(=O)O)CC(=O)O)CC(=O)O [EDTA] |  |  | inhibited the formation of only PfAMA-148+44 | schizont rupture (P. falciparum schizonts): did not affect schizont rupture; accumulation of PfAMA-1 66 [1, 3]: caused accumulation of PfAMA-166; inhibition of RBC invasion [2]: ~40% |
| CC(=O)N[C@@H](CC(C)C)C(=O)N[C@@H](CC(C)C)C(=O)N[C@H](C=O)CCCNC(=N)N [leupeptin] |  | PCM's were observed |  |  |
| Cc1ccc(S(=O)(=O)N[C@@H](CCCCN)C(=O)CCl)cc1 [TLCK] | interrupted schizont maturation |  |  |  |
| CC(C)C[C@H](NC(=O)[C@@H](NC(=O)N[C@@H](Cc1ccccc1)C(=O)O)[C@@H]1CCN=C(N)N1)C(=O)N[C@H](C=O)Cc1ccccc1 [chymostatin] | did not block schizont development | PCM's were observed | formation of both PfAMA-152 and PfAMA-148+44 were inhibited | accumulation of PfAMA-1 66 ([1]; chymostatin 100-12.5 μM): found to accumulate; inhibition at 100 µM ([2]; Plasmodium falciparum, read-out: inhibition of merozoite invasion): > 90% |
